Laboratory results taken from paper PMC10648852, “Molecular drivers of resistance to sulbactam-durlobactam in contemporary clinical isolates of Acinetobacter baumannii” (Antimicrobial Agents and Chemotherapy, 2023).

Legend:
Experiment in all cases: microbe, parasite or virus in culture
[1] = system: A. nosocomialis clinical isolate; assay type: cell-based; settings: isolate ARC7023 (IHMA 2118812), France, BSI, 2019
Description: (§1) The following report describes the genomic analysis of these isolates for likely resistance mechanisms. Biochemical analysis of purified PBP3 and phenotypic analyses of both clinical and isogenic strains were also conducted to determine the relative impact of key resistance determinants to SUL-DUR antibacterial activity.
(§2) Antimicrobial susceptibility testing was performed using broth microdilution following standardized methods established by the Clinical Laboratory Standards Institute (CLSI) ([35], [36]). […] MIC values were interpreted using CLSI breakpoints for all antimicrobial agents except those for which CLSI breakpoints are not available ([35]). SUL-DUR was tested as twofold dilutions of sulbactam in combination with a fixed concentration of 4 µg/mL durlobactam ([35]).

[2] = system: A. baumannii clinical isolates; assay type: cell-based
Description: as §1, §2

[3] = system: A. pittii clinical isolates; assay type: cell-based
Description: as §1, §2

[4] = system: ABC clinical isolates with SUL-DUR MIC > 4 µg/mL; assay type: cell-based, Acinetobacter baumannii-calcoaceticus complex
Description: as §1, §2

For colistin [CST], the MIC [1] was 1 µg/mL, the MIC ([2]; isolate ARC6644 (IHMA 1420327), Mexico, UTI, 2016) was ≤0.25 µg/mL and the MIC ([2]; isolate ARC6645 (IHMA 1435703), France, UTI, 2016) was ≤0.25 µg/mL. The MIC ([2]; isolate ARC6646 (IHMA 1484127), United States, RTI, 2016) was 0.5 µg/mL, the MIC ([2]; isolate ARC6647 (IHMA 1386786), Argentina, RTI, 2016) was 0.5 µg/mL and the MIC ([2]; isolate ARC6648 (IHMA 1407634), Spain, RTI, 2016) was ≤0.25 µg/mL. For the same substance, the MIC ([2]; isolate ARC6650 (IHMA 1457337), Argentina, RTI, 2016) was 0.5 µg/mL, the MIC ([2]; isolate ARC6652 (IHMA 1465642), Belgium, RTI, 2016) was ≤0.25 µg/mL and the MIC ([2]; isolate ARC6653 (IHMA 1308777), Vietnam, RTI, 2016) was 0.5 µg/mL. For the same substance, the MIC ([2]; isolate ARC6799 (IHMA 1562935), Spain, UTI, 2017) was 0.5 µg/mL, the MIC ([2]; isolate ARC6800 (IHMA 1557526), Turkey, RTI, 2017) was >8 µg/mL and the MIC ([2]; isolate ARC6801 (IHMA 1662094), Thailand, RTI, 2017) was ≤0.25 µg/mL. For the same substance, the MIC ([2]; isolate ARC6802 (IHMA 1557073), Spain, UTI, 2017) was ≤0.25 µg/mL, the MIC ([2]; isolate ARC6803 (IHMA 1589408), Belgium, UTI, 2017) was ≤0.25 µg/mL and the MIC ([2]; isolate ARC6805 (IHMA 1558650), United States, RTI, 2017) was ≤0.25 µg/mL. The MIC ([2]; isolate ARC6808 (IHMA 1557168), Spain, RTI, 2017) was ≤0.25 µg/mL, the MIC ([2]; isolate ARC6809 (IHMA 1699528), Guatemala, RTI, 2017) was 0.5 µg/mL and the MIC ([2]; isolate ARC6810 (IHMA 1699548), Guatemala, RTI, 2017) was 0.5 µg/mL. For the same substance, the MIC ([2]; isolate ARC6812 (IHMA 1699530), Guatemala, RTI, 2017) was 0.5 µg/mL, the MIC ([2]; isolate ARC6813 (IHMA 1699543), Guatemala, UTI, 2017) was ≤0.25 µg/mL and the MIC ([2]; isolate ARC6814 (IHMA 1699512), Guatemala, RTI, 2017) was 0.5 µg/mL. For the same substance, the MIC ([2]; isolate ARC6815 (IHMA 1699513), Guatemala, RTI, 2017) was 0.5 µg/mL, the MIC ([2]; isolate ARC6816 (IHMA 1699521), Guatemala, RTI, 2017) was 0.5 µg/mL and the MIC ([2]; isolate ARC6817 (IHMA 1699523), Guatemala, RTI, 2017) was 0.5 µg/mL. For the same substance, the MIC ([2]; isolate ARC6818 (IHMA 1683261), Thailand, RTI, 2017) was ≤0.25 µg/mL, the MIC ([2]; isolate ARC6819 (IHMA 1683267), Thailand, RTI, 2017) was 1 µg/mL and the MIC ([2]; isolate ARC6820 (IHMA 1647876), Argentina, RTI, 2017) was ≤0.25 µg/mL. The MIC ([2]; isolate ARC6821 (IHMA 1699517), Guatemala, RTI, 2017) was 0.5 µg/mL, the MIC ([2]; isolate ARC6822 (IHMA 1637626), Guatemala, RTI, 2017) was 0.5 µg/mL and the MIC ([2]; isolate ARC6823 (IHMA 1620872), Greece, SSSI, 2017) was 1 µg/mL. It also gave an MIC ([2]; isolate ARC6824 (IHMA 1625487), Argentina, BSI, 2017) of 1 µg/mL, an MIC ([2]; isolate ARC6937 (IHMA 1562926), Spain, UTI, 2017) of 0.5 µg/mL and an MIC ([2]; isolate ARC6950 (IHMA 1820064), Israel, RTI, 2018) of 0.5 µg/mL. For the same substance, the MIC ([2]; isolate ARC6953 (IHMA 1909827), Turkey, IAI, 2018) was 0.5 µg/mL, the MIC ([2]; isolate ARC6954 (IHMA 1838192), Guatemala, SSSI, 2018) was 0.5 µg/mL and the MIC ([2]; isolate ARC6955 (IHMA 1825425), United States, RTI, 2018) was 0.5 µg/mL. The MIC ([2]; isolate ARC7008 (IHMA 2009813), Thailand, BSI, 2019) was 0.5 µg/mL, the MIC ([2]; isolate ARC7009 (IHMA 2043611), United States, UTI, 2019) was 0.5 µg/mL and the MIC ([2]; isolate ARC7010 (IHMA 2043398), United States, RTI, 2019) was 0.5 µg/mL. It also gave an MIC ([2]; isolate ARC7011 (IHMA 2104553), Germany, RTI, 2019) of 0.5 µg/mL, an MIC ([2]; isolate ARC7012 (IHMA 2010001), Thailand, RTI, 2019) of 1 µg/mL and an MIC ([2]; isolate ARC7013 (IHMA 1962831), Argentina, RTI, 2019) of 0.5 µg/mL. The MIC ([2]; isolate ARC7014 (IHMA 2045328), Guatemala, IAI, 2019) was 1 µg/mL, the MIC ([2]; isolate ARC7015 (IHMA 2045327), Guatemala, UTI, 2019) was 0.5 µg/mL and the MIC ([2]; isolate ARC7016 (IHMA 2148441), Brazil, BSI, 2019) was 0.5 µg/mL. For the same substance, the MIC ([2]; isolate ARC7017 (IHMA 2148446), Brazil, BSI, 2019) was ≤0.25 µg/mL, the MIC ([2]; isolate ARC7018 (IHMA 2045454), Guatemala, IAI, 2019) was 0.5 µg/mL and the MIC ([2]; isolate ARC7019 (IHMA 2114463), Thailand, RTI, 2019) was 0.5 µg/mL. The MIC ([2]; isolate ARC7020 (IHMA 2045326), Guatemala, RTI, 2019) was 0.5 µg/mL, the MIC ([2]; isolate ARC7021 (IHMA 1966347), Guatemala, RTI, 2019) was 1 µg/mL and the MIC ([2]; isolate ARC7022 (IHMA 2045319), Guatemala, IAI, 2019) was 0.5 µg/mL. The MIC ([2]; isolate ARC7024 (IHMA 2059448), Turkey, RTI, 2019) was 1 µg/mL, the MIC ([2]; isolate ARC7025 (IHMA 2002121), Spain, RTI, 2019) was 0.5 µg/mL and the MIC ([2]; isolate ARC7026 (IHMA 2104494), Guatemala, BSI, 2019) was 0.5 µg/mL. The MIC ([2]; isolate ARC7082 (IHMA 2160640), Belgium, BSI, 2020) was ≤0.25 µg/mL, the MIC ([2]; isolate ARC7083 (IHMA 2163687), United States, RTI, 2020) was 0.5 µg/mL and the MIC ([2]; isolate ARC7084 (IHMA 2189596), Germany, RTI, 2020) was ≤0.25 µg/mL. The MIC ([2]; isolate ARC7085 (IHMA 2205747), Guatemala, IAI, 2020) was ≤0.25 µg/mL, the MIC ([2]; isolate ARC7086 (IHMA 2207563), Israel, RTI, 2020) was ≤0.25 µg/mL and the MIC ([2]; isolate ARC7088 (IHMA 2215554), Turkey, BSI, 2020) was ≤0.25 µg/mL. The MIC ([2]; isolate ARC7089 (IHMA 2240345), Argentina, BSI, 2020) was ≤0.25 µg/mL, the MIC ([2]; isolate ARC7090 (IHMA 2244410), Poland, RTI, 2020) was >8 µg/mL and the MIC ([2]; isolate ARC7091 (IHMA 2244564), Australia, RTI, 2020) was ≤0.25 µg/mL. For the same substance, the MIC ([2]; isolate ARC7092 (IHMA 2258772), United States, BSI, 2020) was 0.5 µg/mL, the MIC ([2]; isolate ARC7093 (IHMA 2258783), United States, RTI, 2020) was ≤0.25 µg/mL and the MIC ([2]; isolate ARC7094 (IHMA 2296423), Turkey, RTI, 2020) was ≤0.25 µg/mL. For the same substance, the MIC ([2]; isolate ARC7095 (IHMA 2320843), Turkey, BSI, 2020) was ≤0.25 µg/mL, the MIC ([2]; isolate ARC7156 (IHMA 2455450), Greece, RTI, 2021) was 8 µg/mL and the MIC ([2]; isolate ARC7158 (IHMA 2523738), Italy, BSI, 2021) was 0.25 µg/mL. For the same substance, the MIC ([2]; isolate ARC7159 (IHMA 2456229), Malaysia, RTI, 2021) was 0.25 µg/mL, the MIC ([2]; isolate ARC7160 (IHMA 2458626), Thailand, RTI, 2021) was 0.25 µg/mL and the MIC ([2]; isolate ARC7161 (IHMA 2429252), Ukraine, RTI, 2021) was 0.5 µg/mL. The MIC ([2]; isolate ARC7162 (IHMA 2411847), United States, BSI, 2021) was 0.25 µg/mL, the MIC ([2]; isolate ARC7163 (IHMA 2477704), United States, BSI, 2021) was 0.25 µg/mL and the MIC ([3]; isolate ARC6949 (IHMA 1898982), Romania, RTI, 2018) was 0.5 µg/mL. For the same substance, the MIC ([3]; isolate ARC6951 (IHMA 1776233), Philippines, RTI, 2018) was ≤0.25 µg/mL, the MIC ([3]; isolate ARC6952 (IHMA 1899008), Romania, RTI, 2018) was 1 µg/mL and the MIC ([3]; isolate ARC7087 (IHMA 2212062), Colombia, BSI, 2020) was ≤0.25 µg/mL. For the same substance, the MIC50 [4] was 0.5 µg/mL, the MIC90 [4] was 1 µg/mL and the “MIC Max” value [4] was >8 µg/mL. For the same substance, the “MIC Min” value [4] was ≤0.25 µg/mL.
